Strand notation (5' to 3'): a small letter for the sugar, then the base; units joined by * are phosphorothioate-linked, units joined directly phosphodiester-linked; [ ] holds rarer units or linkages, { } end groups; capitals alone tell only the bases. k = constrained ethyl (cEt); [5mC] = 5-methylcytosine; d = 2'-deoxy (DNA)
Test system: Yap1 mRNA
Test: Dose-dependent inhibition of human Yap1 in A-431 cells (Example 7, 10,000 cells per well, RTS36584)
Type: cell-based
Conditions: free uptake
Experimental: Modified oligonucleotides described in the studies above were tested at various doses in A-431 cells. Cultured A-431 cells at a density of 10,000 cells per well were treated using free uptake with modified oligonucleotides diluted to concentrations described in the tables below. After approximately 48 hours, Yap1 mRNA levels were measured as previously described using the Human Yap1 primer-probe set RTS36584. Yap1 mRNA levels were normalized to total RNA content, as measured by RIBOGREEN®. Results are presented in the tables below as percent control of the amount of Yap1 mRNA relative to untreated control cells (% UTC). IC50s were calculated using a linear regression on a log/linear plot of the data in excel.

[1] = Table 59, 15.6 nM, A-431 cells 10,000 cells per well, 48 hours
[2] = Table 59, 62.5 nM, A-431 cells 10,000 cells per well, 48 hours
[3] = Table 59, 4000.00 nM, A-431 cells 10,000 cells per well, 48 hours
[4] = Table 59, A-431 cells 10,000 cells per well
[5] = Table 61, 15.6 nM, A-431 cells 10,000 cells per well, 48 hours
[6] = Table 61, 62.5 nM, A-431 cells 10,000 cells per well, 48 hours
[7] = Table 61, 4000.00 nM, A-431 cells 10,000 cells per well, 48 hours
[8] = Table 61, A-431 cells 10,000 cells per well
[9] = Table 57, 15.6 nM, A-431 cells 10,000 cells per well, 48 hours
[10] = Table 57, 62.5 nM, A-431 cells 10,000 cells per well, 48 hours
[11] = Table 57, 4000.00 nM, A-431 cells 10,000 cells per well, 48 hours
[12] = Table 57, A-431 cells 10,000 cells per well
[13] = Table 58, 15.6 nM, A-431 cells 10,000 cells per well, 48 hours
[14] = Table 58, 62.5 nM, A-431 cells 10,000 cells per well, 48 hours
[15] = Table 58, 4000.00 nM, A-431 cells 10,000 cells per well, 48 hours
[16] = Table 58, A-431 cells 10,000 cells per well
[17] = 15.6 nM, A-431 cells, 10,000 cells per well, approximately 48 hours
[18] = 62.5 nM, A-431 cells, 10,000 cells per well, approximately 48 hours
[19] = 4000.00 nM, A-431 cells, 10,000 cells per well, approximately 48 hours
[20] = A-431 cells, approximately 48 hours, linear regression on log/linear plot

## 958533 (kG*k[5mC]*kA*dT*dA*dG*dA*dA*dG*dT*dA*dG*dG*kA*kG*k[5mC]; antisense) [compound 958533]
[1]
  Yap1 mRNA, % UTC: 99 % UTC
[2]
  Yap1 mRNA, % UTC: 61 % UTC
[3]
  Yap1 mRNA, % UTC: 12 % UTC
[4]
  IC50: 100 nM

## 958763 (k[5mC]*kA*k[5mC]*dA*dA*dT*dA*d[5mC]*dA*dA*dG*dA*dT*kG*k[5mC]*kA; antisense) [compound 958763]
[1]
  Yap1 mRNA, % UTC: 98 % UTC
[2]
  Yap1 mRNA, % UTC: 60 % UTC
[3]
  Yap1 mRNA, % UTC: 8 % UTC
[4]
  IC50: 100 nM

## 958644 (kA*kT*kG*dA*dT*d[5mC]*dA*dA*dA*d[5mC]*d[5mC]*dT*dT*kT*kT*k[5mC]; antisense) [compound 958644]
[5]
  Yap1 mRNA, % UTC: 97 % UTC
[6]
  Yap1 mRNA, % UTC: 85 % UTC
[7]
  Yap1 mRNA, % UTC: 24 % UTC
[8]
  IC50: 300 nM

## 958724 (kT*k[5mC]*kA*dG*dT*dT*dA*dT*d[5mC]*d[5mC]*dT*dA*dT*k[5mC]*k[5mC]*k[5mC]; antisense) [compound 958724]
[5]
  Yap1 mRNA, % UTC: 89 % UTC
[6]
  Yap1 mRNA, % UTC: 55 % UTC
[7]
  Yap1 mRNA, % UTC: 6 % UTC
[8]
  IC50: 100 nM

## 958786 (kT*kA*kT*dG*dT*d[5mC]*d[5mC]*dT*dA*d[5mC]*dT*dT*dT*k[5mC]*k[5mC]*k[5mC]; antisense) [compound 958786]
[9]
  Yap1 mRNA, % UTC: 106 % UTC
[10]
  Yap1 mRNA, % UTC: 84 % UTC
[11]
  Yap1 mRNA, % UTC: 25 % UTC
[12]
  IC50: 300 nM

## 958648 (kG*kA*kA*dT*dA*d[5mC]*dT*dG*dA*dG*dT*d[5mC]*dA*kG*kG*kA; antisense) [compound 958648]
Table 60, 15.6 nM, A-431 cells 10,000 cells per well, 48 hours
  Yap1 mRNA, % UTC: 80 % UTC
Table 60, 62.5 nM, A-431 cells 10,000 cells per well, 48 hours
  Yap1 mRNA, % UTC: 65 % UTC
Table 60, 4000.00 nM, A-431 cells 10,000 cells per well, 48 hours
  Yap1 mRNA, % UTC: 24 % UTC
Table 60, A-431 cells 10,000 cells per well
  IC50: 200 nM

## 958587 (kG*kG*kT*dG*dA*d[5mC]*dT*dG*dA*dA*dA*d[5mC]*dT*k[5mC]*kT*kA; antisense) [compound 958587]
[13]
  Yap1 mRNA, % UTC: 94 % UTC
[14]
  Yap1 mRNA, % UTC: 49 % UTC
[15]
  Yap1 mRNA, % UTC: 7 % UTC
[16]
  IC50: 100 nM

## 958614 (kG*kT*k[5mC]*dT*dT*dG*dT*dT*d[5mC]*dT*dT*dA*dT*kG*kG*kT; antisense) [compound 958614]
[5]
  Yap1 mRNA, % UTC: 84 % UTC
[6]
  Yap1 mRNA, % UTC: 49 % UTC
[7]
  Yap1 mRNA, % UTC: 13 % UTC
[8]
  IC50: 100 nM

## 958563 (kA*kG*k[5mC]*dT*dT*dT*dT*dG*d[5mC]*d[5mC]*dA*dG*dG*kA*kG*kA; antisense) [compound 958563]
[1]
  Yap1 mRNA, % UTC: 94 % UTC
[2]
  Yap1 mRNA, % UTC: 54 % UTC
[3]
  Yap1 mRNA, % UTC: 10 % UTC
[4]
  IC50: 100 nM

## 958551 (k[5mC]*kT*k[5mC]*d[5mC]*dT*dG*dT*dA*dG*dA*d[5mC]*dA*d[5mC]*kA*kT*kA; antisense) [compound 958551]
[9]
  Yap1 mRNA, % UTC: 95 % UTC
[10]
  Yap1 mRNA, % UTC: 73 % UTC
[11]
  Yap1 mRNA, % UTC: 14 % UTC
[12]
  IC50: 200 nM

## 958798 (kT*kG*k[5mC]*dA*dG*dT*dA*dT*dA*dA*dT*dA*dT*k[5mC]*k[5mC]*kT; antisense) [compound 958798]
[1]
  Yap1 mRNA, % UTC: 101 % UTC
[2]
  Yap1 mRNA, % UTC: 61 % UTC
[3]
  Yap1 mRNA, % UTC: 12 % UTC
[4]
  IC50: 100 nM

## 958472 (kT*k[5mC]*k[5mC]*dT*dT*dA*dG*dA*dT*d[5mC]*d[5mC]*dT*dT*k[5mC]*kA*k[5mC]; antisense) [compound 958472]
[13]
  Yap1 mRNA, % UTC: 92 % UTC
[14]
  Yap1 mRNA, % UTC: 63 % UTC
[15]
  Yap1 mRNA, % UTC: 23 % UTC
[16]
  IC50: 200 nM

## 958734 (kA*k[5mC]*kA*d[5mC]*dA*dT*dA*dG*dA*dG*d[5mC]*dT*dA*kA*kG*kG; antisense) [compound 958734]
[17]
  Yap1 mRNA, % UTC: 87 % UTC
[18]
  Yap1 mRNA, % UTC: 65 % UTC
[19]
  Yap1 mRNA, % UTC: 15 % UTC
[20]
  IC50: 100 nM

## 958785 (kG*k[5mC]*kA*dA*dT*d[5mC]*d[5mC]*dA*d[5mC]*dA*dA*dT*dT*k[5mC]*k[5mC]*kA; antisense) [compound 958785]
[17]
  Yap1 mRNA, % UTC: 78 % UTC
[18]
  Yap1 mRNA, % UTC: 52 % UTC
[19]
  Yap1 mRNA, % UTC: 6 % UTC
[20]
  IC50: 100 nM

Reference: patent US11214803B2, “Modulators of YAP1 expression” (Ionis Pharmaceuticals, Inc., priority 2019, dated 2022)
